What was measured:
[1] = biological target: KRAS G12V (Homo sapiens, UniProt P01116, G12V); assay: KRAS G12V GDP-GTP exchange assay (bodipy-GDP for GppNHp, with SOS1); type: biochemical; details: 2.5 nM bodipy loaded KRAS G12V, 3 hours after GppNHp-SOS1; read-out: G12V_exchange (KRAS_G12V exchange assay IC50)
Procedure: (§1) The inhibitor potency of the exemplified compounds was determined in a fluorescence based guanine nucleotide exchange assay, which measures the exchange of bodipy-GDP (fluorescently labeled GDP) for GppNHp (Non-hydrolyzable GTP analog) to generate the active state of KRAS in the presence of SOS1 (guanine nucleotide exchange factor). Inhibitors were serially diluted in DMSO and a volume of 0.1 μL was transferred to the wells of a black low volume 384-well plate. 5 μL/well volume of bodipy-loaded KRAS G12C diluted to 5 nM in assay buffer (25 mM Hepes pH 7.5, 50 mM NaCl, 10 mM MgCl2 and 0.01% Brij-35) was added to the plate and pre-incubated with inhibitor for 2 hours at ambient temperature. Appropriate controls (enzyme with no inhibitor or with a G12C inhibitor (AMG-510)) were included on the plate. The exchange was initiated by the addition of a 5 μL/well volume containing 1 mM GppNHp and 300 nM SOS1 in assay buffer. The 10 μL/well reaction concentration of the bodipy-loaded KRAS G12C, GppNHp, and SOS1 were 2.5 nM, 500 uM, and 150 nM, respectively. The reaction plates were incubated at ambient temperature for 2 hours, a time estimated for complete GDP-GTP exchange in the absence of inhibitor. For the KRAS G12D and G12V mutants, similar guanine nucleotide exchange assays were used with 2.5 nM as final concentration for the bodipy loaded KRAS proteins and with 4 hours and 3 hours incubation after adding GppNHp-SOS1 mixture for G12D and G12V respectively. A cyclic peptide described to selectively bind G12D mutant (Sakamoto et al., BBRC 484.3 (2017), 605-611) or internal compounds with confirmed binding were used as positive controls in the assay plates. Fluorescence intensities were measured on a PheraStar plate reader instrument (BMG Labtech) with excitation at 485 nm and emission at 520 nm.
(§2) Either GraphPad prism or XLfit was used to analyze the data. The IC50 values were derived by fitting the data to a four parameter logistic equation producing a sigmoidal dose-response curve with a variable Hill coefficient. Prism equation: Y=Bottom+(Top−Bottom)/(1+10^((Log IC50−X)*Hill slope)); XLfit equation: Y=(A+((B−A)/(1+((X/C)^D)))) where X is the logarithm of inhibitor concentration and Y is the response.

[2] = biological target: KRAS G12D (Homo sapiens, UniProt P01116, G12D); assay: KRAS G12D GDP-GTP exchange assay (bodipy-GDP for GppNHp, with SOS1); type: biochemical; details: 2.5 nM bodipy loaded KRAS G12D, 4 hours after GppNHp-SOS1; read-out: G12D_exchange (KRAS_G12D exchange assay IC50)
Procedure: as §1, §2

[3] = system: MIA PaCa-2 (KRAS G12C) cells; assay: KRAS_G12C cellular pERK HTRF assay; type: cell-based, human; details: Homo sapiens, MIA PaCa-2; phospho-ERK1/2 HTRF, 4 hours incubation; read-out: G12C_pERK (KRAS_G12C pERK assay IC50)
How it was run: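 MIA PaCa-2 (G12C) or G12D lines (A427, HPAF-II) in RPMI/10% FBS, treated with compound for 4 h (G12C) or 2 h (G12D) at 37 °C after overnight plating. Lysed, phospho-ERK1/2 detected by HTRF (665/620 nm). IC50 from percent inhibition versus log concentration.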

[4] = biological target: KRAS G12C (Homo sapiens, UniProt P01116, G12C); assay: KRAS G12C GDP-GTP exchange assay (bodipy-GDP for GppNHp, with SOS1); type: biochemical; details: 2.5 nM bodipy-loaded KRAS G12C, 2 hours pre-incubation with inhibitor, 2 hours after GppNHp-SOS1; read-out: G12C_exchange (KRAS_G12C exchange assay IC50)
How it was run: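 Fluorescence nucleotide-exchange assay: bodipy-GDP-loaded KRAS (2.5 nM final) pre-incubated with inhibitor 2 h at ambient temperature, then 500 µM GppNHp plus 150 nM SOS1 added in pH 7.5 Hepes/MgCl2 buffer. Exchange read at ex 485/em 520 nm after 2 h (G12C), 4 h (G12D) or 3 h (G12V). IC50 from four-parameter logistic fit.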

KRAS G12V, sequence (P01116 1-188 isoform P01116-2 G12V): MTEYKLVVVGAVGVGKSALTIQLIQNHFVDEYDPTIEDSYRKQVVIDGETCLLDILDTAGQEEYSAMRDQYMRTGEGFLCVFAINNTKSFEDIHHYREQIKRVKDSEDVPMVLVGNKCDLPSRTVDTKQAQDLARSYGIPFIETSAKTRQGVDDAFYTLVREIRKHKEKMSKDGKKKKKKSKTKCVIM
KRAS G12C, sequence (P01116 1-188 isoform P01116-2 G12C): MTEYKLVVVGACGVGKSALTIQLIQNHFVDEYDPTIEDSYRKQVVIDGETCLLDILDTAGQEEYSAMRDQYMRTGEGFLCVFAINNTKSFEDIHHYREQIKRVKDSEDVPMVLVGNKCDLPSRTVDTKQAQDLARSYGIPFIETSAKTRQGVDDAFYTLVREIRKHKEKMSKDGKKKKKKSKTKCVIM
KRAS G12D, sequence (P01116 1-188 isoform P01116-2 G12D): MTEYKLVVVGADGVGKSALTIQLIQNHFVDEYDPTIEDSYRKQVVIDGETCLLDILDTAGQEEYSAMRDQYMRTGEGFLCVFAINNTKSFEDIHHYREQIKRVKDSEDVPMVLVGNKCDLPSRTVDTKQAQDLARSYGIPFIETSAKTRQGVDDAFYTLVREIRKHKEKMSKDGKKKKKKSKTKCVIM

| SMILES | IC50 [1] [nM] | IC50 [2] [nM] | IC50 [3] [nM] | IC50 [4] [nM] |
| --- | --- | --- | --- | --- |
| COC(=O)CCc1cc2c(OC[C@@H]3CCCN3C)nc3c(F)c(-c4cc(O)cc5ccccc45)c(CCC#N)cc3c2n1C1C2CNC1C2 (single isomer, unassigned) [Example 29] | ≤ 100 | ≤ 100 | – | – |
| C=CC(=O)N1CC[C@H](n2ncc3c(N4CC(N(C)C)C4)nc4c(F)c(-c5cccc(C)c5Cl)c(Cl)cc4c32)C[C@H]1CC#N [Example 23, 2-((2S,4S)-1-acryloyl-4-(8-chloro-7-(2-chloro-3-methylphenyl)-4-(3-(dimethylamino)azetidin-1-yl)-6-fluoro-1H-pyrazolo[4,3-c]quinolin-1-yl)piperidin-2-yl)acetonitrile] | – | – | ≤ 100 | ≤ 100 |
| Cc1cccc(-c2c(Cl)cc3c(nc(N4CC(N(C)C)C4)c4cnn([C@H]5CCN(C(=O)/C=C/CN(C)C)[C@H](CC#N)C5)c43)c2F)c1Cl [Example 24, 2-((2S,4S)-4-(8-chloro-7-(2-chloro-3-methylphenyl)-4-(3-(dimethylamino)azetidin-1-yl)-6-fluoro-1H-pyrazolo[4,3-c]quinolin-1-yl)-1-((E)-4-(dimethylamino)but-2-enoyl)piperidin-2-yl)acetonitrile] | – | – | ≤ 100 | ≤ 100 |
| C=CC(=O)N1CC[C@H](n2ncc3c(N4CC(N(C)C)C4)nc4c(F)c(-c5cccc(C)c5C(F)(F)F)c(Cl)cc4c32)C[C@H]1CC#N [Example 27, 2-((2S,4S)-1-acryloyl-4-(8-chloro-4-(3-(dimethylamino)azetidin-1-yl)-6-fluoro-7-(3-methyl-2-(trifluoromethyl)phenyl)-1H-pyrazolo[4,3-c]quinolin-1-yl)piperidin-2-yl)acetonitrile] | – | – | ≤ 100 | ≤ 100 |
| C=CC(=O)N1CC[C@H](n2ncc3c(OC[C@@H]4CCCN4C)nc4c(F)c(-c5cccc(C)c5C(F)(F)F)c(Cl)cc4c32)C[C@H]1CC#N [Example 28, 2-((2S,4S)-1-acryloyl-4-(8-chloro-6-fluoro-7-(3-methyl-2-(trifluoromethyl)phenyl)-4-(((S)-1-methylpyrrolidin-2-yl)methoxy)-1H-pyrazolo[4,3-c]quinolin-1-yl)piperidin-2-yl)acetonitrile] | – | – | ≤ 100 | ≤ 100 |
| CN(C)C(=O)CCc1cc2c(OC[C@@H]3CCCN3C)nc3c(F)c(-c4cc(O)cc5ccccc45)c(CCC#N)cc3c2n1C1C2CNC1C2 (stereo partly drawn) [Example 30, 3-(1-(2-azabicyclo[2.1.1]hexan-5-yl)-8-(2-cyanoethyl)-6-fluoro-7-(3-hydroxynaphthalen-1-yl)-4-(((S)-1-methylpyrrolidin-2-yl)methoxy)-1H-pyrrolo[3,2-c]quinolin-2-yl)-N,N-dimethylpropanamide] | ≤ 100 | ≤ 100 | – | – |
| CCCc1cc2c(OC[C@@H]3CCCN3C)nc3c(F)c(-c4cc(O)cc5ccccc45)c(CCC#N)cc3c2n1C1C2CNC1C2 (stereo partly drawn) [Example 31, 3-(1-(2-azabicyclo[2.1.1]hexan-5-yl)-6-fluoro-7-(3-hydroxynaphthalen-1-yl)-4-(((S)-1-methylpyrrolidin-2-yl)methoxy)-2-propyl-1H-pyrrolo[3,2-c]quinolin-8-yl)propanenitrile] | ≤ 100 | ≤ 100 | – | – |
| CN1CCC[C@H]1COc1nc2c(F)c(-c3cc(O)cc4ccccc34)c(CCC#N)cc2c2c1cc(-c1cnn(C)c1)n2C1C2CNC1C2 (stereo partly drawn) [Example 32, 3-(1-(2-azabicyclo[2.1.1]hexan-5-y1)-6-fluoro-7-(3-hydroxynaphthalen-1-y1)-2-(1-methyl-1H-pyrazol-4-y1)-4-(((S)-1-methylpyrrolidin-2-yl)methoxy)-1H-pyrrolo[3,2-c]quinolin-8-yl)propanenitrile] | ≤ 100 | ≤ 100 | – | – |
| CN1CCC[C@H]1COc1nc2c(F)c(-c3cc(O)cc4ccccc34)c(CCC#N)cc2c2c1ccn2C1C2CNC1C2 (stereo partly drawn) [Example 33, 3-(1-(2-azabicyclo[2.1.1]hexan-5-yl)-6-fluoro-7-(3-hydroxynaphthalen-1-yl)-4-(((S)-1-methylpyrrolidin-2-yl)methoxy)-1H-pyrrolo[3,2-c]quinolin-8-yl)propanenitrile] | 100 to 1000 | ≤ 100 | – | – |
| CN(C)C/C=C/C(=O)N1CC[C@H](n2ncc3c(N4CC(C)(N(C)C)C4)nc4c(F)c(-c5cccc6cccc(Cl)c56)c(Cl)cc4c32)C[C@H]1CC#N [Example 63, 2-((2S,4S)-4-(8-chloro-7-(8-chloronaphthalen-1-yl)-4-(3-(dimethylamino)-3-methylazetidin-1-yl)-6-fluoro-1H-pyrazolo[4,3-c]quinolin-1-yl)-1-((E)-4-(dimethylamino)but-2-enoyl)piperidin-2-yl)acetonitrile] | – | – | ≤ 100 | ≤ 100 |

The next lines start with the values.

| IC50 [1] [nM] | IC50 [2] [nM] | IC50 [3] [nM] | IC50 [4] [nM] | SMILES |
| --- | --- | --- | --- | --- |
| – | – | ≤ 100 | ≤ 100 | C[C@H](Oc1nc2c(F)c(-c3cccc4cccc(Cl)c34)c(Cl)cc2c2c1cnn2[C@H]1CCN(C(=O)/C=C/CF)[C@H](CC#N)C1)[C@@H]1CCCN1C [Example 85, 2-((2S,4S)-4-(8-chloro-7-(8-chloronaphthalen-1-yl)-6-fluoro-4-((S)-1-((S)-1-methylpyrrolidin-2-yl)ethoxy)-1H-pyrazolo[4,3-c]quinolin-1-yl)-1-((E)-4-fluorobut-2-enoyl)piperidin-2-yl)acetonitrile] |
| – | – | ≤ 100 | ≤ 100 | C=C(F)C(=O)N1CC[C@H](n2ncc3c(O[C@@H](C)[C@@H]4CCCN4C)nc4c(F)c(-c5cccc6cccc(Cl)c56)c(Cl)cc4c32)C[C@H]1CC#N [Example 86, 2-((2S,4S)-4-(8-chloro-7-(8-chloronaphthalen-1-yl)-6-fluoro-4-((S)-1-((S)-1-methylpyrrolidin-2-yl)ethoxy)-1H-pyrazolo[4,3-c]quinolin-1-yl)-1-(2-fluoroacryloyl)piperidin-2-yl)acetonitrile] |
| – | – | ≤ 100 | ≤ 100 | CC#CC(=O)N1CC[C@H](n2ncc3c(O[C@@H](C)[C@@H]4CCCN4C)nc4c(F)c(-c5cccc6cccc(Cl)c56)c(Cl)cc4c32)C[C@H]1CC#N [Example 87, 2-((2S,4S)-1-(but-2-ynoyl)-4-(8-chloro-7-(8-chloronaphthalen-1-yl)-6-fluoro-4-((S)-1-((S)-1-methylpyrrolidin-2-yl)ethoxy)-1H-pyrazolo[4,3-c]quinolin-1-yl)piperidin-2-yl)acetonitrile] |
| – | – | ≤ 100 | ≤ 100 | COC/C=C/C(=O)N1CC[C@H](n2ncc3c(O[C@@H](C)[C@@H]4CCCN4C)nc4c(F)c(-c5cccc6cccc(Cl)c56)c(Cl)cc4c32)C[C@H]1CC#N [Example 88, 2-((2S,4S)-4-(8-chloro-7-(8-chloronaphthalen-1-yl)-6-fluoro-4-((S)-1-((S)-1-methylpyrrolidin-2-yl)ethoxy)-1H-pyrazolo[4,3-c]quinolin-1-yl)-1-((E)-4-methoxybut-2-enoyl)piperidin-2-yl)acetonitrile] |
| – | – | ≤ 100 | ≤ 100 | C[C@H](Oc1nc2c(F)c(-c3cccc4cccc(Cl)c34)c(Cl)cc2c2c1cnn2[C@H]1CCN(C(=O)/C=C/CN(C)C)[C@H](CC#N)C1)[C@@H]1CCCN1C [Example 89, 2-((2S,4S)-4-(8-chloro-7-(8-chloronaphthalen-1-yl)-6-fluoro-4-((S)-1-((S)-1-methylpyrrolidin-2-yl)ethoxy)-1H-pyrazolo[4,3-c]quinolin-1-yl)-1-((E)-4-(dimethylamino)but-2-enoyl)piperidin-2-yl)acetonitrile] |

Reference: US20210355121A1, “FUSED TRICYCLIC KRAS INHIBITORS” (Incyte Corporation, priority 2020, published 2021)
